According to ChEMBL document CHEMBL1201862, “PubChem BioAssay data set” (2004):
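Five compound concentrations were applied to cells in 96-well plates for 48 hours; endpoints were derived by simple linear interpolation of the resulting dose-response curve. The concentration for 50% growth inhibition is given as GI50.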 Calls of active or inactive are those of the source. Rule as the data show it: active = GI50 up to about 1.1 µM and inactive = higher.

Experiments:
Experiment in all cases: NCI tumour cell line growth inhibition, 48 h
RXF 631 = tested on: RXF 631
LXFL 529 = tested on: LXFL 529
DMS-114 = tested on: DMS-114
KM-20L2 = tested on: KM-20L2
XF498 = tested on: XF498
SNB-78 = tested on: SNB-78
M19-MEL = tested on: M19-MEL
DMS-273 = tested on: DMS-273
HOP-18 = tested on: HOP-18

| Compound | GI50 (RXF 631) | GI50 (LXFL 529) | GI50 (DMS-114) | GI50 (KM-20L2) | GI50 (XF498) | GI50 (SNB-78) | GI50 (M19-MEL) | GI50 (DMS-273) | GI50 (HOP-18) |
| --- | --- | --- | --- | --- | --- | --- | --- | --- | --- |
| O=C1C(CO)=C(CO)C(=O)c2c(O)ccc(O)c21 | 1.26 µM (inactive) | 0.177 µM (active) | 0.24 µM (active) | 0.498 µM (active) | 0.247 µM (active) | 1.7 µM (inactive) | 0.0719 µM (active) | 0.369 µM (active) | – |
| C=C1C(=O)C23C(O)CC4C(C)(C)CCC(O)C4(C)C2CC(OC(C)=O)C1[C@H]3O (stereo not given in full) | 4.8 µM (inactive) | 1.07 µM (active) | – | 3.15 µM (inactive) | 1.91 µM (inactive) | 0.925 µM (active) | 1.61 µM (inactive) | 1.65 µM (inactive) | 2.27 µM (inactive) |
| NC(=O)c1csc(C2OC(COP(=O)(O)CP(=O)(O)OCC3OC(n4cnc5c(N)ncnc54)C(O)C3O)C(O)C2O)n1 (stereo not given) | > 100 µM (inactive) | > 100 µM (inactive) | > 100 µM (inactive) | > 100 µM (inactive) | > 100 µM (inactive) | > 100 µM (inactive) | > 100 µM (inactive) | 85.5 µM (inactive) | > 100 µM (inactive) |
| CC(C)(C)C(=O)Cc1cc2c(cc1C(=O)O)S(=O)(=O)NC(C(C)(C)C)=C2 | – | > 100 µM (inactive) | > 100 µM (inactive) | – | – | > 100 µM (inactive) | > 100 µM (inactive) | – | – |
| Nc1n[nH]c(N)n1 [GUANAZOLE] | – | – | 1800 µM (inactive) | 7890 µM (inactive) | 237 µM (inactive) | 5250 µM (inactive) | > 10000 µM (inactive) | 914 µM (inactive) | 5610 µM (inactive) |
| COc1ccc(C2S/C(=C\c3cc(OC)c(OC)c(OC)c3)C(=O)N2NC(=O)Cc2ccccc2)cc1 (stereo not given) | – | 61.9 µM (inactive) | 72.9 µM (inactive) | – | – | – | > 100 µM (inactive) | > 100 µM (inactive) | > 100 µM (inactive) |
| CC(Oc1cc2oc(=O)cc(-c3ccccc3)c2cc1Cl)C(=O)O (stereo not given) | > 100 µM (inactive) | > 100 µM (inactive) | > 100 µM (inactive) | > 100 µM (inactive) | 33.5 µM (inactive) | > 100 µM (inactive) | > 100 µM (inactive) | – | > 100 µM (inactive) |
| O=c1[nH]c2cccccc-2c1-c1nc2ccccc2[nH]1 | – | 22.2 µM (inactive) | 10.3 µM (inactive) | 46.5 µM (inactive) | 18.5 µM (inactive) | 25.7 µM (inactive) | 34.2 µM (inactive) | 15.5 µM (inactive) | – |
| CCOC(=O)c1cc2c(cn1)[nH]c1cccc(N)c12 | – | > 100 µM (inactive) | > 100 µM (inactive) | – | > 100 µM (inactive) | > 100 µM (inactive) | > 100 µM (inactive) | > 100 µM (inactive) | > 100 µM (inactive) |
| COc1ccccc1C(N)c1ccccc1 (stereo not given) | – | > 100 µM (inactive) | > 100 µM (inactive) | > 100 µM (inactive) | – | > 100 µM (inactive) | > 100 µM (inactive) | > 100 µM (inactive) | > 100 µM (inactive) |
| CCCCCCCCCCCCCCCC[N+](C)(C)Cc1ccc(C[N+](C)(C)CCCCCCCCCCCCCCCC)cc1 | 2.19 µM (inactive) | 8.09 µM (inactive) | 1.85 µM (inactive) | 3.62 µM (inactive) | – | 2.73 µM (inactive) | 2.67 µM (inactive) | 1.98 µM (inactive) | 1.67 µM (inactive) |
| COc1cc(/C=C\c2ccc(OC(C)=O)cc2)cc(OC)c1OC | 17.7 µM (inactive) | 6.1 µM (inactive) | 3.33 µM (inactive) | 25.9 µM (inactive) | 3.39 µM (inactive) | 5.62 µM (inactive) | 6.4 µM (inactive) | 0.887 µM (active) | – |
| CCCCn1c(-c2ccccc2)cs/c1=N\N=C1C=C(C(C)(C)C)C(=O)C(C(C)(C)C)=C1 | > 100 µM (inactive) | > 100 µM (inactive) | > 100 µM (inactive) | > 100 µM (inactive) | > 100 µM (inactive) | – | > 100 µM (inactive) | > 100 µM (inactive) | – |
| OCCN(CCO)c1cccc(N(CCO)CCO)n1 | > 100 µM (inactive) | > 100 µM (inactive) | > 100 µM (inactive) | > 100 µM (inactive) | 27.7 µM (inactive) | > 100 µM (inactive) | > 100 µM (inactive) | > 100 µM (inactive) | – |
| COC1CC(OC)C2OC(c3ccccc3)OCC2O1 (stereo not given) | – | > 100 µM (inactive) | – | > 100 µM (inactive) | – | > 100 µM (inactive) | > 100 µM (inactive) | – | > 100 µM (inactive) |
| Cn1ncc2cc3c(Nc4ccc(Cl)cc4)cccc3nc21 | 17.7 µM (inactive) | 15.6 µM (inactive) | 12.9 µM (inactive) | 14.7 µM (inactive) | 8.11 µM (inactive) | 34 µM (inactive) | 22.1 µM (inactive) | > 10 µM (inactive) | – |
| Cc1cccc2c(O)cc(=O)oc12 | – | > 100 µM (inactive) | > 100 µM (inactive) | > 100 µM (inactive) | > 100 µM (inactive) | > 100 µM (inactive) | > 100 µM (inactive) | – | > 100 µM (inactive) |
| Nc1ccn(CCOC(c2ccccc2)P(=O)(O)O)c(=O)n1 (stereo not given) | – | > 100 µM (inactive) | > 100 µM (inactive) | > 100 µM (inactive) | > 100 µM (inactive) | > 100 µM (inactive) | > 100 µM (inactive) | > 100 µM (inactive) | – |
| NS(=O)(=O)c1cc2c(cc1Cl)NC(C(=O)c1cc(=O)c3ccc(O)cc3o1)=NS2(=O)=O | – | – | > 100 µM (inactive) | > 100 µM (inactive) | > 100 µM (inactive) | > 100 µM (inactive) | > 100 µM (inactive) | > 100 µM (inactive) | > 100 µM (inactive) |
| Cc1ccc(NC(=O)CCC(=O)C2CC(=O)CC/C2=N\NC(=O)c2cc3ccccc3cc2O)cc1C (stereo not given) | 32.6 µM (inactive) | 21.4 µM (inactive) | 19.8 µM (inactive) | 27.5 µM (inactive) | 31.1 µM (inactive) | 28.6 µM (inactive) | 27.4 µM (inactive) | 13.2 µM (inactive) | 21.8 µM (inactive) |
| O=C(O)C12C=CC(C1)c1ccccc12 (stereo not given) | – | > 100 µM (inactive) | > 100 µM (inactive) | > 100 µM (inactive) | – | – | > 100 µM (inactive) | > 100 µM (inactive) | > 100 µM (inactive) |
